Laboratory results reported in ChEMBL document CHEMBL1201862, “PubChem BioAssay data set” (2004).
Values belong to the compound of their own block, whether it stands above or below them. Active and inactive are the calls of the source.

Tests used:
[1] = biological target: Mothers against decapentaplegic homolog 3 (Homo sapiens, UniProt P84022); assay: inhibitors of SMAD-driven TGF-beta signaling – dose response (AID 715); type: functional
[2] = IC50 of Artemis nuclease activity blockers – biochemical, fluorescence intensity, dose response (AID 720701); type: functional;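 note: Artemis endonuclease enzyme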
[3] = general mammalian cell viability loss – activator set, cherry-pick, cytotoxicity control for miR-122 modulator project, dose response (AID 720690); type: functional, cell-based;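 note: HEK293T human cells scored for general mammalian cytotoxicity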
Insulin-degrading enzyme = biological target: T1, Insulin-degrading enzyme (Homo sapiens, UniProt P14735); assay: recombinant IDE activation, cell-free – biochemical, fluorescence polarization, counter-screen for IDE activator project, dose response (AID 588681)
T1 sequence (P14735 whole entry): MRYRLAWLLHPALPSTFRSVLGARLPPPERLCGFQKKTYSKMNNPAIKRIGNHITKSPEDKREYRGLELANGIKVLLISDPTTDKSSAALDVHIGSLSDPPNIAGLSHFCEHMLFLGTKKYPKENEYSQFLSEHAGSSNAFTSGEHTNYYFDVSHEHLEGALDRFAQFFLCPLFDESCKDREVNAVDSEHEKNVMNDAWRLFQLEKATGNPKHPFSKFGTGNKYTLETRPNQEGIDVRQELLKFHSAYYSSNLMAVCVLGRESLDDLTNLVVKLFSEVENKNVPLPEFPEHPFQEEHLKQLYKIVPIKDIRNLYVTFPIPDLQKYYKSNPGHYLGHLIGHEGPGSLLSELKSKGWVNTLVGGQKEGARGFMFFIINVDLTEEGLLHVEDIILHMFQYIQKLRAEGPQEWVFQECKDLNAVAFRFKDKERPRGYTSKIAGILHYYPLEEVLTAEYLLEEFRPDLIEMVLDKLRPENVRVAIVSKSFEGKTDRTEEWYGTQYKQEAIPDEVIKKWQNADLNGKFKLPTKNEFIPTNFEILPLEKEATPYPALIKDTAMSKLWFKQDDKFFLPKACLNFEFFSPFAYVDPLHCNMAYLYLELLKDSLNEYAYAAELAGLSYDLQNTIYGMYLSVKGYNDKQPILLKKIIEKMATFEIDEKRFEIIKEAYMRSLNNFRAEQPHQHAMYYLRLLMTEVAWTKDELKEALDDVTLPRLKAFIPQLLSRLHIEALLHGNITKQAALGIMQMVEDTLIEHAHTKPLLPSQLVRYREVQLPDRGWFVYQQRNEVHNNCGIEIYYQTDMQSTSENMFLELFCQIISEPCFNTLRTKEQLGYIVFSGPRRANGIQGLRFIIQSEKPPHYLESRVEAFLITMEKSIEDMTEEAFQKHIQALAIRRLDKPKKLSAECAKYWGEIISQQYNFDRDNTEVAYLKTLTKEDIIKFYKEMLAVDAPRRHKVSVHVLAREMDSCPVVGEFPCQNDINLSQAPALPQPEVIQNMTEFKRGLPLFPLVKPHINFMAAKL

BJ [4] = assay: growth inhibition of engineered Ras-driven BJ cells – cell-based, alamar blue fluorescence, cherrypicked samples, dose response (AID 2631); type: functional; settings: Homo sapiens;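 note: confirmatory dose-response assay in RAS-dependent BJ fibroblasts engineered with TERT, LT and ST, with cytotoxicity read by fluorescence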
BJ [5] = assay: BJ-TERT fibroblast viability loss – cell-based, RAS-independent, luminescence, dose response (AID 1933); type: functional; settings: Homo sapiens
[6] = biological target: T2, DNA repair protein RAD52 homolog (Homo sapiens, UniProt P43351); type: functional, biochemical
T2 sequence (P43351 whole entry): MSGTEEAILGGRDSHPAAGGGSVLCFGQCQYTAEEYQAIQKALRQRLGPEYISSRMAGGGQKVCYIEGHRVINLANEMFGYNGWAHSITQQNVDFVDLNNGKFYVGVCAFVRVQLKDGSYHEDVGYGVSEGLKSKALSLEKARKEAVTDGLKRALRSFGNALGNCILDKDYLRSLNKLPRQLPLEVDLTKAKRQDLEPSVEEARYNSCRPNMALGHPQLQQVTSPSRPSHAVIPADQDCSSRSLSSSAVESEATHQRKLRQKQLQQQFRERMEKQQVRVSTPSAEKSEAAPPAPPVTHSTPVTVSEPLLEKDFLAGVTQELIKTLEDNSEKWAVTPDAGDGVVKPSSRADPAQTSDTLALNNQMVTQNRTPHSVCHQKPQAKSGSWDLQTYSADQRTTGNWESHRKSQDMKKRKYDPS

[7] = biological target: T3, Ubiquitin-conjugating enzyme E2 N (Homo sapiens, UniProt P61088); type: functional;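 note: Dose-response confirmation in a TR-FRET assay detecting UBC13-driven polyubiquitin chain formation, inhibition measured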
T3 sequence (P61088 whole entry): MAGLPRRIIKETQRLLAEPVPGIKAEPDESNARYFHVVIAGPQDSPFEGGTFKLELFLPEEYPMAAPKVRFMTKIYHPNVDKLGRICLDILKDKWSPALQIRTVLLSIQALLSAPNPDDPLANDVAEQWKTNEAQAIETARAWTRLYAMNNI

[8] = biological target: Maternal embryonic leucine zipper kinase (Homo sapiens, UniProt Q14680); type: functional
Maternal embryonic leucine zipper kinase, sequence (Q14680 whole entry): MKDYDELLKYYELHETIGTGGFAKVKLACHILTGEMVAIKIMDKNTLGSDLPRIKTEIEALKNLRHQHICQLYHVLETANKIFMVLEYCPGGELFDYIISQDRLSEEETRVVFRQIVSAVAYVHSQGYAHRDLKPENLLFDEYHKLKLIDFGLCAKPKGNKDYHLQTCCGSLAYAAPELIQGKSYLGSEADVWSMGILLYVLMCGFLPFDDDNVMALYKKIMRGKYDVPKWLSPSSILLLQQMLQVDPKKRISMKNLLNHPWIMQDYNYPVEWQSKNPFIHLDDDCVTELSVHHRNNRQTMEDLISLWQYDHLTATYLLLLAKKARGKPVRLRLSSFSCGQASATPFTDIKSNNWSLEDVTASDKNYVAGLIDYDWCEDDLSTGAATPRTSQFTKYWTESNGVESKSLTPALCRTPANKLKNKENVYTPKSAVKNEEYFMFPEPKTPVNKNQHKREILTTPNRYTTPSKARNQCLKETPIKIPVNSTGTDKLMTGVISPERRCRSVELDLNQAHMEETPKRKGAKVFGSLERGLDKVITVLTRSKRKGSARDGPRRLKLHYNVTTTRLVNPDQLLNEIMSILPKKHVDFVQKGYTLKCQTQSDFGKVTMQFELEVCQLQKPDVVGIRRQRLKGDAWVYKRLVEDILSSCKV

[9] = biological target: Serine/threonine-protein phosphatase (Homo sapiens, UniProt Q9BPW0); assay: inhibition of protein phosphatase 5 activity – biochemical, fluorescence, dose response (AID 2395)
Serine/threonine-protein phosphatase, sequence (Q9BPW0 whole entry): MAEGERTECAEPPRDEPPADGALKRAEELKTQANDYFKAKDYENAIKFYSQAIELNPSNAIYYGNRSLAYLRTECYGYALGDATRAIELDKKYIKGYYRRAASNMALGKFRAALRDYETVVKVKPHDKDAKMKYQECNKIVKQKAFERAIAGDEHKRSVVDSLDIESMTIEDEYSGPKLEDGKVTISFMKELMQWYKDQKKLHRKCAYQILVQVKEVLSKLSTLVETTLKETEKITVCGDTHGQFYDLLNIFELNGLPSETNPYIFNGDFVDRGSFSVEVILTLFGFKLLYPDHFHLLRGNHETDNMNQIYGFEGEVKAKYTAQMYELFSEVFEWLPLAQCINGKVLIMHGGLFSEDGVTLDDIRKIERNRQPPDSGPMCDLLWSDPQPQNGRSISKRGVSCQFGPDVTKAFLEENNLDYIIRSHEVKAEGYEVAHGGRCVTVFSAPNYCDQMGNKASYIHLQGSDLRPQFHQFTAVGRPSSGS

[10] = biological target: T4, Tyrosyl-DNA phosphodiesterase 2 (Homo sapiens, UniProt O95551); assay: potency against TDP2 phosphodiesterase activity – biochemical, epi absorbance, IC50, dose response (AID 743297)
T4 sequence (O95551 whole entry): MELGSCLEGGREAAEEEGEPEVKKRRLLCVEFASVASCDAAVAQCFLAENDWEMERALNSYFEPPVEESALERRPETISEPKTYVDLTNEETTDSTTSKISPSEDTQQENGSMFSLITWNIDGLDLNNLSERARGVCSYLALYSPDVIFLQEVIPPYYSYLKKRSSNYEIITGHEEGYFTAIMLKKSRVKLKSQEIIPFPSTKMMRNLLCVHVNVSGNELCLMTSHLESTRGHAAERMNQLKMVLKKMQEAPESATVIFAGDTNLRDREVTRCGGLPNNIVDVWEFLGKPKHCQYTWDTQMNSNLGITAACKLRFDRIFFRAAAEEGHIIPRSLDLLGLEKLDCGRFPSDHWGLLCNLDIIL

[11] = biological target: T5, Mannose-6-phosphate isomerase (Homo sapiens, UniProt P34949); assay: MPI enzyme activity inhibition – biochemical, fluorescence intensity, coupled assay, primary screen (AID 1209)
T5 sequence (P34949 whole entry): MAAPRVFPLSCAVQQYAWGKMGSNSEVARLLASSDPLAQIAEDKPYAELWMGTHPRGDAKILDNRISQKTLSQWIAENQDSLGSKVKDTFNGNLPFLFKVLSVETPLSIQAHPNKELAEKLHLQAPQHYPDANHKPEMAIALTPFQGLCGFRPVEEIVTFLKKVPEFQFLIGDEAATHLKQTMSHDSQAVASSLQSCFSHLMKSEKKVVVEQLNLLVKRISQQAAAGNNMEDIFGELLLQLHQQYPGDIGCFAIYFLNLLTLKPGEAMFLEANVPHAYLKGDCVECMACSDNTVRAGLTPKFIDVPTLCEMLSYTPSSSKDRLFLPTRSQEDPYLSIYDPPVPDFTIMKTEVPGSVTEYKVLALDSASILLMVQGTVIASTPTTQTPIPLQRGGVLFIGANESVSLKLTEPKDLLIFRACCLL

Mothers against decapentaplegic homolog 3, sequence (P84022 whole entry): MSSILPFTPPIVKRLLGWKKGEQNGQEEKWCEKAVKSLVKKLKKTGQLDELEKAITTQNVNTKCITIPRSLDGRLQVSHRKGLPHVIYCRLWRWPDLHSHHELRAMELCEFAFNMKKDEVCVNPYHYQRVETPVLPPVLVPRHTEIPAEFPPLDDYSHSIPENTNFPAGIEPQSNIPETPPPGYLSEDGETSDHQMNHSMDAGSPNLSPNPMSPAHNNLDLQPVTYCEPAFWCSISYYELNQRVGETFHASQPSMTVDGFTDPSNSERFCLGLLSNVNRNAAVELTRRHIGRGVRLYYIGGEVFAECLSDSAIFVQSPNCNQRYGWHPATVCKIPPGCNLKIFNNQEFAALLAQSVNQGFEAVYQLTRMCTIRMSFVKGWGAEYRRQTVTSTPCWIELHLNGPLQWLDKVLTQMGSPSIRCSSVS

SMILES: CCOC(=O)c1ccc(NC2=CC(=O)C(=O)c3ccccc32)cc1
- IC50 [1]: 2.81 µM (active)
- IC50 [2]: 2.6 µM (active)

SMILES: OC(CNCCC1C=Nc2ccccc21)Cn1c2ccc(Cl)cc2c2cc(Cl)ccc21 (stereo not drawn)
- AC50 [3]: 6.52 µM (active)
- EC50 (Insulin-degrading enzyme): > 54.7 µM (inactive)
- EC50 (BJ [4]): 4.36 µM (inconclusive)
- EC50 (BJ [5]): 5.3 µM (inconclusive)

SMILES: CCCCCCCCCCCCCCCC[N+](C)(C)C
- AC50 [6]: 8.73 µM (active)
- IC50 [7]: > 20 µM (inactive)

- Ki [8]: 0.00316 µM (active)
- pKi [8]: 8.5
SMILES: NC1CCC(Nc2nc(Cl)cc(-c3c[nH]c4ncccc34)n2)CC1 (stereo not drawn)

- IC50 [9]: 19.6 µM (not active)
SMILES: COc1ccc(C(=O)c2nccc3cc(OC)c(OC)cc23)cc1OC

SMILES: Cc1ccccc1-c1cc2c(nn1)-c1ccccc1C2=O
- IC50 [10]: 32 µM (inactive)
- IC50 [11]: > 50 µM (not active)
